From PubChem BioAssay (NCI)
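Method: 48-hour compound exposure of cells in 96-well plates, five concentrations, linear interpolation of endpoints. GI50: concentration for 50% inhibition of growth. TGI: total growth inhibition.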

Tests used:
Assay in all cases: NCI tumour cell line growth inhibition, 48 h
EKVX NSCLC = test system: EKVX NSCLC
HOP-62 NSCLC = test system: HOP-62 NSCLC
NCI-H460 lung = test system: NCI-H460 lung
OVCAR-3 ovarian = test system: OVCAR-3 ovarian
RPMI-8226 leukemia = test system: RPMI-8226 leukemia
SNB-75 CNS = test system: SNB-75 CNS
SW-620 colon = test system: SW-620 colon
TK-10 renal = test system: TK-10 renal
CAKI-1 renal = test system: CAKI-1 renal
HS 578T breast = test system: HS 578T breast

| Compound | TGI (EKVX NSCLC) | TGI (HOP-62 NSCLC) | TGI (NCI-H460 lung) | TGI (OVCAR-3 ovarian) | TGI (RPMI-8226 leukemia) | TGI (SNB-75 CNS) | TGI (SW-620 colon) | TGI (TK-10 renal) | GI50 (CAKI-1 renal) | TGI (CAKI-1 renal) | GI50 (EKVX NSCLC) | GI50 (HOP-62 NSCLC) | GI50 (NCI-H460 lung) | GI50 (OVCAR-3 ovarian) | GI50 (SW-620 colon) | GI50 (TK-10 renal) | GI50 (RPMI-8226 leukemia) | GI50 (SNB-75 CNS) | GI50 (HS 578T breast) | TGI (HS 578T breast) |
| --- | --- | --- | --- | --- | --- | --- | --- | --- | --- | --- | --- | --- | --- | --- | --- | --- | --- | --- | --- | --- |
| NC1=NC(=O)C(CC(=O)Nc2ccc([N+](=O)[O-])cc2[N+](=O)[O-])S1 (stereo not given) | > 100 µM | > 100 µM | > 100 µM | > 100 µM | > 100 µM | > 100 µM | > 100 µM | > 100 µM | – | – | – | – | – | – | – | – | – | – | – | – |
| c1cc[c]([Sn]([S]c2cccc3cccnc23)([c]2ccccc2)[c]2ccccc2)cc1 | 0.37 µM | 0.368 µM | 0.033 µM | 0.0346 µM | – | 0.0473 µM | 0.0918 µM | 0.181 µM | 0.0114 µM | 0.0421 µM | 0.0558 µM | 0.103 µM | 0.0143 µM | 0.0158 µM | 0.0225 µM | 0.0446 µM | – | – | – | – |
| CC1(C)CCc2cc3c(cc2O1)OCCC3=O | > 100 µM | > 100 µM | > 100 µM | > 100 µM | > 100 µM | > 100 µM | > 100 µM | > 100 µM | – | > 100 µM | – | – | – | – | – | – | – | – | – | – |
| c1ccc2c(c1)N=C(c1cccc3ccccc13)CC(c1cccc3ccccc13)S2 (stereo not given) | 28.7 µM | 26.1 µM | 19.5 µM | 9.68 µM | 4.85 µM | 19.1 µM | 6.81 µM | 25.8 µM | – | 13.2 µM | – | – | – | – | – | – | – | – | – | – |
| CCOC(=O)Cc1nc(/C(C#N)=C/c2ccco2)[nH]c(=O)c1C#N | > 100 µM | > 100 µM | > 100 µM | > 100 µM | > 100 µM | > 100 µM | > 100 µM | > 100 µM | – | > 100 µM | – | – | – | – | – | – | – | – | – | – |
| CCCSc1cc(Cl)nc(N)n1 | > 100 µM | > 100 µM | > 100 µM | > 100 µM | > 100 µM | > 100 µM | > 100 µM | > 100 µM | 90.7 µM | > 100 µM | > 100 µM | > 100 µM | > 100 µM | > 100 µM | > 100 µM | > 100 µM | > 100 µM | 90.1 µM | – | – |
| CNC(=O)c1ccc(-c2cnc3ncc(Cc4ccc5ncccc5c4)n3n2)cc1F | – | > 100 µM | > 100 µM | > 100 µM | > 100 µM | 54.8 µM | > 100 µM | > 100 µM | > 100 µM | > 100 µM | – | 94.3 µM | > 100 µM | > 100 µM | > 100 µM | > 100 µM | > 100 µM | 12.7 µM | 62.7 µM | > 100 µM |
| CCN(Cc1c(F)cccc1F)c1ccc(CO)c(Cl)c1 | – | 34.7 µM | 0.612 µM | 0.317 µM | 41.4 µM | 49.6 µM | > 90.4 µM | – | 0.167 µM | 1.77 µM | – | 0.327 µM | 0.0663 µM | 0.0634 µM | 0.139 µM | – | 1.1 µM | 11 µM | 20.4 µM | 77.4 µM |
| CC(=O)c1c(C)n([O-])c2cc(C)c(C)cc2[n+]1=O | > 100 µM | > 100 µM | > 100 µM | > 100 µM | > 100 µM | > 100 µM | > 100 µM | > 100 µM | – | > 100 µM | – | – | – | – | – | – | – | – | – | – |
| O=C1N[C@@H](O)[C@@H]2ON=C(c3ccccc3)[C@H]12 | > 100 µM | > 100 µM | > 100 µM | > 100 µM | > 100 µM | > 100 µM | > 100 µM | > 100 µM | – | > 100 µM | – | – | – | – | – | – | – | – | – | – |
| CN(C)c1nc(-c2cccs2)n2nc(-c3ccc(Cl)cc3)cc2n1 | > 100 µM | 6.53 µM | – | – | > 100 µM | 10.4 µM | > 100 µM | – | – | – | 4.38 µM | 2.27 µM | – | – | > 100 µM | – | > 100 µM | 2.26 µM | 3.11 µM | > 100 µM |
| COc1cc(/C=C\c2ccc(O)cc2)cc(OC)c1OC | > 100 µM | > 100 µM | > 30 µM | 6.24 µM | 35.3 µM | > 30 µM | > 100 µM | > 100 µM | – | > 100 µM | – | – | – | – | – | – | – | – | – | – |
| Clc1ccc(CNc2nc3ccccc3nc2-c2cccs2)c(Cl)c1 | > 100 µM | > 100 µM | > 100 µM | > 100 µM | > 100 µM | – | > 100 µM | > 100 µM | – | – | – | – | – | – | – | – | – | – | – | – |
| CNC(=O)c1cn(C[C@H](F)CCc2ccc(NC(=O)Cc3cc(OC4CC(F)(F)C4)cc(C)n3)nn2)nn1 | > 100 µM | > 100 µM | > 100 µM | – | > 100 µM | > 100 µM | > 100 µM | > 100 µM | – | – | > 100 µM | > 100 µM | > 100 µM | – | > 100 µM | > 100 µM | 5.65 µM | > 100 µM | 5.37 µM | > 100 µM |
| CC(=O)OCCOCBr | > 100 µM | > 100 µM | > 100 µM | > 100 µM | > 100 µM | > 100 µM | > 100 µM | > 100 µM | – | > 100 µM | – | – | – | – | – | – | – | – | – | – |
| CC1=Nc2c(ccc3c2C(=O)c2ccccc2C3=O)NC(c2ccncc2)C1 (stereo not given) | > 100 µM | > 100 µM | > 100 µM | > 100 µM | > 100 µM | > 100 µM | > 100 µM | > 100 µM | 3.77 µM | > 100 µM | > 100 µM | – | > 100 µM | > 100 µM | – | – | 89.9 µM | – | – | – |
| CCCCCC(C(O)C#N)C(O)(C(F)(F)F)C(F)(F)F (stereo not given) | – | > 10 µM | – | > 10 µM | > 10 µM | > 10 µM | > 10 µM | > 10 µM | – | > 10 µM | – | – | – | – | – | – | – | – | – | > 10 µM |
| CC(O)CN1C(=O)NC(Cc2ccccc2)C1=O (stereo not given) | > 100 µM | 86.3 µM | > 100 µM | – | – | > 100 µM | > 100 µM | > 100 µM | – | > 100 µM | – | – | – | – | – | – | – | – | – | – |
| CN(C)C(=S)/N=c1\ss/c(=N\S(=O)(=O)c2ccccc2)n1-c1ccccc1 | > 100 µM | 98.3 µM | – | > 100 µM | > 100 µM | > 100 µM | > 100 µM | > 100 µM | – | > 100 µM | – | – | – | – | – | – | – | – | – | – |
